# According to patent US20080069809A1, “Compositions and methods for the diagnosis and treatment of cancer” (priority 2006, published 2008):
# What was measured:
# Type in all cases: cell-based
# caspase-3 = test: Caspase-3 phosphorylation in 32PO4-labeled HL60 cells; conditions: 20 nM PEP005 and 5 μM rottlerin
# Experimental: To determine if PEP005 induced caspase-3 phosphorylation, HL60 cells were incubated with 1.5×10^7 Bq/mL ^32PO4 (Amersham Pharmacia) in phosphate-free medium for 3 hours prior to addition of 20 nM PEP005 or PEP005 and 5 μM rottlerin (Calbiochem, Nottingham, United Kingdom). Cells were then lysed and caspase-3 was immunoprecipitated with an anti-caspase-3 antibody (BD Pharmingen, Oxford, United Kingdom) or an irrelevant isotype-matched control antibody (DAKO) and the immunoprecipitate was isolated using an anti-mouse immunoglobulin G (IgG) antibody (DAKO) and protein G-coated magnetic beads (microbeads; Miltenyi Biotech). The isolate was taken up in SDS sample buffer and run on a 10% w/v SDS-polyacrylamide gel electrophoresis (PAGE) gel and the labeled proteins were visualized using a phosphorimager.
# HL60 [1] = test: Apoptosis (sub-G1 DNA by FACS, caspase-3 activation) in HL60 leukemic cells
# Experimental: The myeloid leukemic cell lines HL60, NB60, NB4, U937, K562 and KG1a were all grown in RPMI 1640 medium (Life Technologies, Paisley, United Kingdom) supplemented with 10% v/v fetal calf serum (Sear Laboratories International Crawley, United Kingdom), 100 U/mL penicillin, and 100 μg/mL streptomycin (Sigma Aldrich, Poole, United Kingdom) at 37° C. and 5% v/v CO2. AML blasts were isolated from patient bone marrow aspirates and peripheral blood of eight patients at diagnosis or relapse. Patients were not receiving AML therapy at time of sampling. Blasts were isolated by Ficoll density centrifugation and were cultured in serum-free insulin transferrin selenium-positive (ITS+) medium (Life Technologies) containing 300 ng/mL stem cell factor (SCF) and 10 ng/mL interleukin 3 (IL3; R and D Systems, Abingdon, United Kingdom) and antibiotics. […] Normal myeloblasts were isolated from cord blood or adult mobilized peripheral blood. Briefly, CD34^+ cells were indirectly selected from the mononuclear cell preparations using antibody-coated magnetic beads (Miltenyi Biotec, United Kingdom).
# To determine the effects of ingenol-3-angelate (PEP005), cells were incubated for up to 5 days with medium alone or PEP005 at a range of concentrations from 0.2 nM to 20 μM. PEP005 was extracted from Euphorbia peplus and supplied as a 98.5% pure preparation by Peplin Limited (Brisbane, Australia) as a dry pellet and was made up to a stock of […] in acetone on a weekly basis. Stocks were stored at 4° C. and diluted into medium when required. Final acetone concentration was never more than 0.1% v/v. Apoptosis and differentiation were assessed after 1 to 5 days.
# HL60 [2] = test: Phagocytosis of complement-coated yeast by HL60 cells; conditions: after 3 days of treatment, PMA 20 nM
# Experimental: Cell differentiation was determined by staining of cells with anti-CD11b antibody as a general early marker of myeloid differentiation. In studies with HL60 cells, PEP005-treated and 20 nM phorbol myristate (PMA)-treated (Sigma Aldrich) cells were also assessed for their ability to phagocytose complement-coated yeast, a marker of a fully differentiated myeloid cell, as previously described (Toksoz et al, Leukemia Res 6:491-498, 1982). The ingestion of three or more yeasts was taken as a positive result. In normal cord blood or adult bone marrow myeloblasts, loss of CD34 was taken as a marker of differentiation. Isotype-matched controls were used and all antibodies were from DAKO (Cambridge, United Kingdom). […] Cells were also used to prepare cytospins, which were then differentially stained using a commercial May-Grünwald-Ginesa stain (Diff-Kwik; Gamidor, Abingdon, United Kingdom) to identify cells with a blast or differentiated or apoptotic morphology. Slides were examined using a Zeiss III RS brightfield microscope equipped with a 40×/0.75 water-immersion objective (Carl Zeiss, Jena, Germany). Images were captured with a SPOT2 cameria (Diagnostic Instructions, Sterling Heights, Mich.) and analyzed using Image-Pro 4.0 software (Media Cybernetics, Silver Spring, Md.).
# PKC-δ = biological target: T1, PKC-δ (Homo sapiens, UniProt Q05655); test: PKC-δ activation by translocation (cell fractionation, Western blotting) in HL60 cells; conditions: 20 nM PEP005 or 20 nM PMA, 10 minutes
# T1 construct: endogenous in cells; host or cells: HL60
# T1 sequence (Q05655 whole entry): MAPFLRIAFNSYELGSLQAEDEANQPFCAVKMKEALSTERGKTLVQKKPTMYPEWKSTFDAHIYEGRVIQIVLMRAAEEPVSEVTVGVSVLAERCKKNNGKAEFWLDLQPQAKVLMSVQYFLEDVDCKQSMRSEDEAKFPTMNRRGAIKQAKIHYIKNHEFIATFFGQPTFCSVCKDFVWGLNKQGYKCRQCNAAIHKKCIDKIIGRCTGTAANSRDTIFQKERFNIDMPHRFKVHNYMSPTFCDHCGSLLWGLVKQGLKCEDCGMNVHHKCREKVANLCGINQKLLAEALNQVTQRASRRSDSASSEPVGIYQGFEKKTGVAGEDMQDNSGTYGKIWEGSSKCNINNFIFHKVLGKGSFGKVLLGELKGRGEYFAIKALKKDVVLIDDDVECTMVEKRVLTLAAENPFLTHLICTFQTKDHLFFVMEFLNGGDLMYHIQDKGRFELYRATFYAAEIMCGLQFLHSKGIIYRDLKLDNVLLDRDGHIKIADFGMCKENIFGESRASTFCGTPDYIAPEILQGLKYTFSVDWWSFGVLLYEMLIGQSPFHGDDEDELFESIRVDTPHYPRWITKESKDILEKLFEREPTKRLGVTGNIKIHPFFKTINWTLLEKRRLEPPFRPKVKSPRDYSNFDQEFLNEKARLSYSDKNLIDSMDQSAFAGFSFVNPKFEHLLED
# Experimental: PKC translocates from the soluble to the particulate fraction of cells when activated and this method was used to assess activation of PKC-δ by PEP005 and PMA. Briefly, cells were incubated for 10 minutes in medium alone or 20 nM PEP005 or 20 nM PMA, washed twice in phosphate buffered saline (PBS) and then lysed by homogenization in hypotonic lysis buffer in the absence of detergent. Lysis was checked using trypan blue uptake. Nuclei were isolated by centrifugation at 1000 g for 10 minutes. Centrifugation at 100,000 g for 45 minutes at 4° C. was used to isolate the cytosol (supernatant) and cell membrane (pellet) fractions. All were taken up in SDS sample buffer and analyzed for PKC-δ by Western blotting.
# KG1a = test: Differentiation (CD11b expression) in KG1a cells; conditions: agent alone
# Experimental: The myeloid leukemic cell lines HL60, NB60, NB4, U937, K562 and KG1a were all grown in RPMI 1640 medium (Life Technologies, Paisley, United Kingdom) supplemented with 10% v/v fetal calf serum (Sear Laboratories International Crawley, United Kingdom), 100 U/mL penicillin, and 100 μg/mL streptomycin (Sigma Aldrich, Poole, United Kingdom) at 37° C. and 5% v/v CO2. AML blasts were isolated from patient bone marrow aspirates and peripheral blood of eight patients at diagnosis or relapse. Patients were not receiving AML therapy at time of sampling. Blasts were isolated by Ficoll density centrifugation and were cultured in serum-free insulin transferrin selenium-positive (ITS+) medium (Life Technologies) containing 300 ng/mL stem cell factor (SCF) and 10 ng/mL interleukin 3 (IL3; R and D Systems, Abingdon, United Kingdom) and antibiotics. Blast purity ranged from 80% to 95%, as assessed by expression of CD34. Normal myeloblasts were isolated from cord blood or adult mobilized peripheral blood. Briefly, CD34^+ cells were indirectly selected from the mononuclear cell preparations using antibody-coated magnetic beads (Miltenyi Biotec, United Kingdom).
# Cell differentiation was determined by staining of cells with anti-CD11b antibody as a general early marker of myeloid differentiation. In studies with HL60 cells, PEP005-treated and 20 nM phorbol myristate (PMA)-treated (Sigma Aldrich) cells were also assessed for their ability to phagocytose complement-coated yeast, a marker of a fully differentiated myeloid cell, as previously described (Toksoz et al, Leukemia Res 6:491-498, 1982). The ingestion of three or more yeasts was taken as a positive result. In normal cord blood or adult bone marrow myeloblasts, loss of CD34 was taken as a marker of differentiation. Isotype-matched controls were used and all antibodies were from DAKO (Cambridge, United Kingdom). […] Images were captured with a SPOT2 cameria (Diagnostic Instructions, Sterling Heights, Mich.) and analyzed using Image-Pro 4.0 software (Media Cybernetics, Silver Spring, Md.).
smiles,measurement,setting,value
"CC(=O)c1c(O)c(C)c(O)c(Cc2c(O)c3c(c(C(=O)/C=C/c4ccccc4)c2O)OC(C)(C)C=C3)c1O [rottlerin, reference compound]",effect on PEP005-induced caspase-3 phosphorylation,caspase-3,ablated
"CN(C)CCCn1cc(C2=C(c3c[nH]c4ccccc34)C(=O)NC2=O)c2ccccc21 [bisindolylmaleimide I, reference compound]",inhibition of PEP005-induced apoptosis (caspase-3 activation),HL60 [1]; 20 nM PEP005 with 1 μM Bis-1 or 20 nM Go6976,inhibited
"CCCCCCCCCCCCCC(=O)O[C@@H]1[C@@H](C)[C@@]2(O)[C@@H](C=C(CO)C[C@]3(O)C(=O)C(C)=C[C@@H]23)[C@@H]2C(C)(C)[C@]12OC(C)=O [PMA, phorbol myristate, reference compound]",apoptosis (caspase-3 activity),"HL60 [1]; after 3 days of treatment, PMA 20 nM",no increase in apoptosis
same,differentiation to phagocytes (ability to phagocytose yeast),HL60 [2],induced differentiation of HL60 cells toward phagocytes
same,site of initial PKC-δ translocation,PKC-δ,only to the cell membrane
"CC1=C(/C=C/C(C)=C/C=C/C(C)=C/C(=O)O)C(C)(C)CCC1 [ATRA, all-trans retinoic acid, reference compound]",differentiation response,KG1a,did not respond
